Test results reported in US20260115190A1, “DISPERSIONS OF ETRUMADENANT” (Arcus Biosciences, Inc., priority 2022, published 2026).

Columns and labels:
[1] = system: CYP3A4, CYP2C8, and uridine 5′-diphospho glucuronosyltransferase (UGT) enzyme isoforms; experiment: In vitro metabolism of etrumadenant; format: in vitro ADME; settings: in vitro data
[2] = Phase 1 relative bioavailability (capsule v. tablet) and food effect study; format: in vivo, human
Text: This example describes a Phase 1 study to compare the single-dose PK of an etrumadenant tablet versus an etrumadenant capsule, in healthy adult participants (19-55 years of age), and to evaluate the effect of food on the single-dose PK of etrumadenant tablet, in healthy adult participants.
The study was an open-label, randomized, 3-treatment, 3 period crossover study to evaluate the relative bioavailability (BA) of etrumadenant tablet and capsule formulations and the effect of food on the tablet formulation. On Day 1 of each period, a single dose of etrumadenant was administered in a 3-period crossover fashion. Participants (n=24) received etrumadenant capsules under fasting (Treatment A) conditions and etrumadenant tablets under fasting (Treatment B) and fed (high-fat meal; Treatment C) conditions. PK samples for etrumadenant and its metabolites were taken predose and up to 120 hours post dose. There was a washout of at least 7 days between the etrumadenant doses. All participants who received at least one dose of etrumadenant (including participants who terminate the study early) were asked to return to the Clinical Research Unit (CRU) 14 (+2) days after the last dose for follow-up procedures, and to determine if any adverse event (AE) has occurred since the last study visit.
Study treatments are described as follows. […]
Additional PK parameters were calculated if deemed appropriate. […]

[3] = Thermal analysis by MDSC (Tg); format: physicochemical; settings: amorphous etrumadenant made by melt quenching; one experiment
Protocol: Thermal Properties. Thermal properties were measured using a TA Instruments Discovery DSC2500 DSC equipped with a TA instruments Refrigerated Cooling System 90 operating in modulated mode. Briefly, bulk drug substance was analyzed by standard DSC with a heating rate of 10° C. per minute ramping up to 220° C. Amorphous etrumadenant was created from the starting drug substance by rapidly melt quenching using liquid N2 and then analyzed by modulated DSC (MDSC). Events monitored include the glass transition temperature (Tg), cold crystallization (Tc), defined as a crystallization event at a temperature lower than the melt temperature, and melting temperature (Tm). In one experiment, the thermal properties were as follows: Tg=69° C.; Tc=no crystallization up to 220° C.; Tm=192° C. Minor lot-to-lot variation may occur.

[4] = Non-sink dissolution (0.1N HCl to FaSSIF gastric transfer); format: physicochemical
Protocol: In vitro drug dissolution performance for each dispersion was evaluated under non-sink conditions in a two-stage process that simulates pH and bile salt concentrations for both gastric and intestinal exposure. In vitro dissolution testing under non-sink conditions allows for a direct evaluation of each dispersion's ability to generate and maintain supersaturation above crystalline etrumadenant's solubility; was used as a predictive surrogate for ensuring product quality and in vivo performance; and is an effective test to discriminate between formulations at a given stability condition.
To begin dissolution (t=0), a sample of SDI powder was briefly suspended in 4 mL of FaSSIF (2 mg/mL SIF in 100 mM PBS) and then transferred into 50 mL SGF (0.1 N HCl (aq)) pre-heated to 37° C. in a USP Type 2 mini-vessel (100 mL total vessel volume) with stirring (paddles) at 100 rpm. At 30 minutes, a gastric transfer step was performed wherein the volume in each dissolution vessel was approximately doubled using 2×FaSSIF (4.48 mg/mL SIF powder (BioRelevant)), resulting in a final pH of 6.8 in a total volume of 100 mL. Samples taken before and after this transfer at indicated times were evaluated for drug concentration by HPLC. The drug concentrations measured in this test are a composite of SDI free drug, drug in micelles, and drug suspended in solution. A summary of the dissolution and HPLC parameters are shown in Table 6 and Table 7, respectively.

Cmax, AUC and Tmax in capsules and tablets ([2]; 150 mg, fasting): statistically equivalent | effect of fed conditions on overall exposure (AUClast and AUCINF) compared to fasting condition ([2]; tablet 150 mg): no effect | glass transition temperature (Tg) [3]: 69 °C | AUC35-210 FaSSIF ([4]; Example 4, after transfer to FaSSIF from 35 to 210 minutes): 8000 min*μgA/mL | C210 ([4]; Example 4, drug concentration at 210 minutes (180 minutes after transfer to FaSSIF)): 37.9 μgA/mL | Cmax FaSSIF ([4]; Example 4, maximum drug concentration after transfer to FaSSIF): 155.0 μgA/mL | AUC35-210 FaSSIF ([4]; Example 5, t = 0): 3800 min*μgA/mL | C210 ([4]; Example 5, t = 0): 15.5 μgA/mL | Total Drug CmaxFaSSIF ([4]; Example 5, t = 0): 129.9 μgA/mL | C210 ([4]; Example 5, t = 0, listed as AB928 starting drug substance): 15.6 μgA/mL
SMILES: Cc1c(C#N)cccc1-c1cc(-c2cn(Cc3cccc(C(C)(C)O)n3)nn2)nc(N)n1 [Etrumadenant, 3-[2-amino-6-(1-{[6-(2-hydroxypropan-2-yl)pyridine-2-yl]methyl}-1H-1,2,3-triazol-4-yl)pyrimidin-4-yl]-2-methylbenzonitrile]
etrumadenant metabolism mediated by [1]: mediated by CYP3A4, CYP2C8, and uridine 5′-diphospho glucuronosyltransferase (UGT) enzyme isoforms
